Assay results taken from patent US8779120B2, “Macrocyclic derivatives of glycolurils, and methods of preparing and using the same” (Masarykova Univerzita, priority 2009, dated 2014).

How the values were obtained:
[1] = 1H NMR competition of dodecamethylbambus[6]uril-HCl complex with tetrabutylammonium iodide, association constant; assay type: binding; conditions: CD3OD:CDCl3=2:1, equimolar mixture, overall concentration 5 mM
Description: (§1) Equimolar mixture of dodecamethylbambus[6]uril-HCl complex and tetrabutylammonium bearing bromide, iodide, and tetrafluoroborate anions was dissolved in the mixture of CD3OD:CDCl3=2:1 to obtain solution in which overall concentration of dissolved solids was 5 mM. In all cases obtained ^1H NMR spectrum was identical with the spectrum of corresponding complex (see Example 20-22). As signals corresponding to dodecamethylbambus[6]uril-HCl complex were not observed the value of association constants for all complexes was calculated to be higher than 5×10^4 M^−1.

[2] = 1H NMR competition of dodecamethylbambus[6]uril-HCl complex with tetrabutylammonium bromide, association constant; assay type: binding; conditions: CD3OD:CDCl3=2:1, equimolar mixture, overall concentration 5 mM
Description: as §1

[3] = Solubility of anion free macrocycle in studied solvent systems; assay type: physicochemical; conditions: anion free form; chloroform, methanol, DMSO, acetonitrile, water or the mixtures of these solvents
Description: Dodecamethylbambus[6]uril-HI complex (0.5 g) was dissolved in the mixture of chloroform (50 ml) and methanol (50 ml). 30% H2O2 (0.25 ml) was added and the solution was stirred at room temperature for 24 h. The resulting white precipitate was collected by filtration and washed with equimolar mixture of chloroform and methanol. […] When tetrabutylammonium bearing bromide, iodide, and tetrafluoroborate anions is added to the suspension of obtained white powder in equimolar mixture of chloroform and methanol the immediate formation of transparent solution was observed. ^1H NMR spectra of the solutions correspond to the spectra of the complex between dodecamethylbambus[6]uril and corresponding anion.
Titanium dioxide powder (Aeroxide P25, typically 0.1 mg) was suspended in a solution of dodecamethylbambus[6]uril-HI complex (5.0 mM) in acetonitrile/water (1:1, 0.5 mL) in a standard quartz UV cuvette. The mixture was purged with oxygen for 5 min and irradiated at either wave lengths 254 or 366 nm. After 4 h white precipitated of anion free dodecamethylbambus[6]uril was obtained in 87% yield. […]

[4] = 1H NMR competition of dodecamethylbambus[6]uril-HCl complex with tetrabutylammonium tetrafluoroborate, association constant; assay type: binding; conditions: CD3OD:CDCl3=2:1, equimolar mixture, overall concentration 5 mM
Description: as §1

SMILES: CN1C(=O)N(C)[C@@H]2[C@H]1N1CN3C(=O)N(CN4C(=O)N(CN5C(=O)N(CN6C(=O)N(CN7C(=O)N(CN2C1=O)[C@@H]1[C@H]7N(C)C(=O)N1C)[C@@H]1[C@H]6N(C)C(=O)N1C)[C@@H]1[C@H]5N(C)C(=O)N1C)[C@@H]1[C@H]4N(C)C(=O)N1C)[C@@H]1[C@H]3N(C)C(=O)N1C [dodecamethylbambus[6]uril, Dodecamethylbambus[6]uril]
- association constant of complex with iodide anion [1]: higher than 5×10^4 M^−1
- association constant of complex with bromide anion [2]: higher than 5×10^4 M^−1
- solubility of the anion free powder [3]: does not dissolve
- association constant of complex with tetrafluoroborate anion [4]: higher than 5×10^4 M^−1
